Measurements as given in patent US20190254285A1, “SODIUM PHOSPHITE COMBINATIONS” (priority 2016, published 2019).

What was measured:
Assay type in all cases: in vivo
black sigatoka [1] = assay: Black sigatoka on banana plants, single leaf test, leaf 1 preventive, VOLLEY 88 OL; conditions: for Area infected (%) / Efficacy: VOLLEY 88 OL 5.525 L/ha, phosphites 2 mol/l at 3 liter/ha; for Efficacy: vs untreated control
Procedure: (§1) A single leaf test was established in a research station located in the community of “Anita Grande,” county of Jimenez, province of Limon, Costa Rica (latitude 10°15′14.15″N, longitude 83°44′20.29″W).
(§2) Every treatment was established in individual plants. Treatments were applied to leaf number 1 to determine their effect as preventive. Leaf position is counted from top to bottom, whereby leaf number 1 is closest to the unfolded leaf. Treatments were distributed systematically to facilitate their location in the field.
(§3) Product applications were done in an area of 10×10 cm, with a special equipment designed to simulate aerial applications. Application was done at 35 pound-force per square inch. Since weather conditions were highly conducive for disease development, and inoculum density was very high, no artificial inoculation was done. All treatments were applied to the same position on the leaf to minimize experimental error. All treatments were applied at the equivalent volume of 25 L ha^−1, as it is done commercially. A total of 3 sprays were applied, application A at Day 0, application B at 7 days after application A (DAA), and application C at day 13 DAA. VOLLEY® 88 OL was sprayed at 5.525 L/ha and the different phosphites were applied at the same PO3 concentration of 2 mol/l and were sprayed at 3 liter/ha.
Mixture of products was done with an electric stirrer (DEWALT® General Purpose, model DW9107), equipped with a standard propel.
(§4) For the evaluation of the efficacy, the diseased area that was affected in the 10×10 cm leaf area was recorded. Evaluations were done 23, 30 and 36 DAA. Efficacy was calculated by comparing the treatments against the untreated control.

black sigatoka [2] = assay: Black sigatoka on banana plants, single leaf test, leaf 3 curative, DITHANE 60 SC; conditions: for Area infected (%) / Efficacy: 8 DAA, leaf 3 curative, DITHANE 60 SC 5 liter/ha; for Area infected (%): phosphites 2 mol/l at 3 liter/ha; for Efficacy: vs untreated control
Procedure: as §1, §2, §3, §4
(§5) Similar to Example 8, with the following differences: DITHANE® 60 SC (Dow AgroSciences) at a rate of 5 liter/ha was applied instead of […] and only one measurement was performed at 23 days after application A (DAA).
Similar to Example 9, with the following differences: Treatments and measurements were applied to leaf number 3, to determine their effect as curative, and one measurement was performed at 8 days after application A (DAA).

powdery mildew [3] = assay: Powdery mildew on cucumber leaf disks; conditions: for Surface area (%): phosphite 16 mM, sulfur 0.1 g/L
Procedure: (§6) Leaves were taken from 5 to 6 week old tomato plant. Per treatment 5 ml was sprayed over 5 leaves and dried for 1 hour. Circular disks were punched from the treated leaves with a diameter of 11 mm. 5 disks per treatment were put on water agar in 90 mm ø petri dishes. Water agar was made by sterilizing agar-agar (5 g/L, Carl Roth), benzimidazole (30 mg/L, Sigma-Aldrich) and antibiotic tetracycline hydrochloride (25 mg/L, Carl Roth) in water. Disks were infected by brushing powdery mildew spores from an infected leave until disks were visually covered by spores. After 10 days the surface area covered by powdery mildew was measured by putting pictures of the disks through an online image analyzer. Efficacy was calculated by comparing the treatments against the untreated control. Replicates: 20 disks were used per treatment.
All phosphite concentrations were tested at a concentration of 16 mM of phosphite.
Similar to Example 7 with the following differences: Leaf disk were taken from the dicotyledon leaves when the cucumber was around 2 weeks old. 5 disks per treatment were put on water agar in 90 mm ø petri dishes, with a total of 10 leaf disks per treatment. The formulated sulfur was tested at a concentration of 0.1 g sulfur/L. Assessment was done after 14 and 21 days after infection.

powdery mildew [4] = assay: Powdery mildew on tomato leaf disks; conditions: for Surface area (%): leaf disk area covered by powdery mildew after 10 days, phosphite 16 mM, sulfur 0.5 g per liter
Procedure: as §6, with “After 10 days the surface area covered by powdery mildew was measured by putting pictures of the disks through an online image analyzer.” left out, “treatment. All phosphite concentrations were tested at a concentration of 16 mM of phosphite. Formulated sulfur was applied at a dose of 0.5 g sulfur per liter. Formulated sulfur consists of the following elements: Sulfur±50% (w/w); Anionic surfactant<3%; Non-ionic surfactant <3%; Water±44%.” for “treatment.”

Botrytis cinerea = Botrytis cinerea rot on wounded apple and banana fruit; design: key: Different results are indicated by different letters; Different results are indicated by different letters; Different results are indicated by different letters; Different results are indicated by different letters; Different results are indicated by different letters
Source text: Tested fruit: apple (cv Elstar) and a banana (cv Cavendish) from organic origin/SKAL certified. SKAL is a semi-governmental Dutch organization that controls organic production in the Netherlands.
Used pathogen: Botrytis cinerea spore-suspension containing ˜3×10^5 propagules (spores)/ml.
Application: Fruit peel was damaged with a cork borer, depth ˜0.5 cm into the fruit, 2 wounds per apple fruit; 2 wounds per banana fruit. 30 microliters of a freshly prepared spore suspension of B. cinerea (estimated 3×10^5 spores/ml) were applied by pipette onto each wound. Subsequently, the spore-suspension was allowed to air-dry for 3 hours. 50 microliters of fungicide suspensions 1-6 were applied by pipette to each wound.
All fruits were kept at room temperature (20° C.).
Replicates: All treatments (1-6) were performed on 6 individual apples and 6 individual bananas with 2 wounds each resulting in 12 wounds per fruit per treatment. The recorded observed antifungal activity is the reduction (in percentages) of the average surface of the rot as observed in the 12 wounds compared to the rot surface of the untreated control.
Observation: All wounds were inspected daily for visual symptoms of fruit rot and/or fungus growth. Rot surface was determined after 5 and 7 days (see Tables 1, 2 and 3). The recorded observed antifungal activity is the surface of the rot.

black sigatoka [5] = assay: Black sigatoka on banana plants, single leaf test, leaf 1 preventive, DITHANE 60 SC; conditions: for Area infected (%) / Efficacy: 23 DAA, leaf 1 preventive, DITHANE 60 SC 5 liter/ha; for Area infected (%): phosphites 2 mol/l at 3 liter/ha; for Efficacy: vs untreated control
Procedure: as §1, §2, §3, §4, §5

[6] = Table 1, phosphonate Concentration 1, mandipropamid control
[7] = Table 1, phosphonate Concentration 2, mandipropamid control
[8] = Table 1, phosphonate Concentration 3, mandipropamid control
[9] = Table 2, phosphonate Concentration 2, mefenoxam control

Compound | Area infected (%) (black sigatoka [1]; 23 DAA) | Efficacy (black sigatoka [1]; 23 DAA) | Area infected (%) (black sigatoka [1]; 30 DAA) | Efficacy (black sigatoka [1]; 30 DAA) | Area infected (%) (black sigatoka [1]; 36 DAA) | Efficacy (black sigatoka [1]; 36 DAA) | Area infected (%) (black sigatoka [2]) | Efficacy (black sigatoka [2]) | Surface area (%) (powdery mildew [3]; Day 14 after infection) | Surface area (%) (powdery mildew [3]; Day 21 after infection) | Surface area (%) (powdery mildew [4]) | Effect on fungicidal attack of Botrytis on apple and banana (Botrytis cinerea; [6]) | Effect on fungicidal attack of Botrytis on apple and banana (Botrytis cinerea; [7]) | Effect on fungicidal attack of Botrytis on apple and banana (Botrytis cinerea; [8]) | Effect on fungicidal attack of Botrytis on apple and banana (Botrytis cinerea; [9]) | Area infected (%) (black sigatoka [5]) | Efficacy (black sigatoka [5]) | also measured
O=[PH]([O-])[O-].[K+].[K+] [Treatment K2HPO3] | 9.2% | 51.6 | 26.4% | 38.6 | 33.0% | 26.5 | 12.6% | 43.2 | 5.18% | 4.84% | 58.68% | d | c | b | c | 10.6% | 44.2 | –
disodium hydrogen phosphite [Na2HPO3] | 18.8% | 1.1 | 31.0% | 27.9 | 38.0% | 26.9 | 15.4% | 30.6 | 9.15% | 7.38% | 51.20% | d | c | b | c | 12.6% | 33.7 | Increase of the fungal efficacy of VOLLEY 88 OL compared with other phosphite salts (black sigatoka [1]; conclusion from Table 8): increases the fungal efficacy of VOLLEY® 88 OL the best; Increase of the fungal efficacy of DITHANE 60 SC compared with other phosphite salts (black sigatoka [2]; conclusion from Table 10, curative): increases the fungal efficacy of DITHANE® 60 SC the best; Increase of the fungal efficacy of sulfur compared with other phosphite salts (powdery mildew [3]; conclusion from Table 12): increases the fungal efficacy of sulfur the best; Increase of the fungal efficacy of sulphur compared with other phosphite salts (powdery mildew [4]; conclusion from Table 7): increases the fungal efficacy of sulphur the best; Effect on fungicidal attack of Botrytis on apple and banana (Botrytis cinerea; Table 3, Na2HPO3 part, Concentration 1, mandipropamid control): d; Effect on fungicidal attack of Botrytis on apple and banana (Botrytis cinerea; Table 3, Na2HPO3 part, Concentration 2, mandipropamid control): c; Effect on fungicidal attack of Botrytis on apple and banana (Botrytis cinerea; Table 3, Na2HPO3 part, Concentration 3, mandipropamid control): b; Increase of the fungal efficacy of DITHANE 60 SC compared with other phosphite salts (black sigatoka [5]; conclusion from Table 9, preventive): increases the fungal efficacy of DITHANE® 60 SC the best
N.N.O=[PH](O)O [(NH4)2HPO3] | 9.8% | 48.4 | 26.2% | 39.1 | 34.0% | 34.4 | 9.2% | 58.6 | 7.21% | 5.61% | 66.32% | d | c | b | c | 8.0% | 57.9 | –
